The record followed here is publication PMC12365235, “Molecular mechanisms of thiazide-like diuretics-mediated inhibition of the human Na-Cl cotransporter” (Nature Communications, 2025).

As usually defined, the IC50 is the midpoint of a concentration-inhibition curve. Low readings indicate greater potency in that assay, high ones weaker potency in that assay.

One assay deals with T1, hNCC(G230A) (Homo sapiens, UniProt P55017, G230A).
T1 construct: expressed in transfected cells
T1 sequence (P55017 1-1021 G230A): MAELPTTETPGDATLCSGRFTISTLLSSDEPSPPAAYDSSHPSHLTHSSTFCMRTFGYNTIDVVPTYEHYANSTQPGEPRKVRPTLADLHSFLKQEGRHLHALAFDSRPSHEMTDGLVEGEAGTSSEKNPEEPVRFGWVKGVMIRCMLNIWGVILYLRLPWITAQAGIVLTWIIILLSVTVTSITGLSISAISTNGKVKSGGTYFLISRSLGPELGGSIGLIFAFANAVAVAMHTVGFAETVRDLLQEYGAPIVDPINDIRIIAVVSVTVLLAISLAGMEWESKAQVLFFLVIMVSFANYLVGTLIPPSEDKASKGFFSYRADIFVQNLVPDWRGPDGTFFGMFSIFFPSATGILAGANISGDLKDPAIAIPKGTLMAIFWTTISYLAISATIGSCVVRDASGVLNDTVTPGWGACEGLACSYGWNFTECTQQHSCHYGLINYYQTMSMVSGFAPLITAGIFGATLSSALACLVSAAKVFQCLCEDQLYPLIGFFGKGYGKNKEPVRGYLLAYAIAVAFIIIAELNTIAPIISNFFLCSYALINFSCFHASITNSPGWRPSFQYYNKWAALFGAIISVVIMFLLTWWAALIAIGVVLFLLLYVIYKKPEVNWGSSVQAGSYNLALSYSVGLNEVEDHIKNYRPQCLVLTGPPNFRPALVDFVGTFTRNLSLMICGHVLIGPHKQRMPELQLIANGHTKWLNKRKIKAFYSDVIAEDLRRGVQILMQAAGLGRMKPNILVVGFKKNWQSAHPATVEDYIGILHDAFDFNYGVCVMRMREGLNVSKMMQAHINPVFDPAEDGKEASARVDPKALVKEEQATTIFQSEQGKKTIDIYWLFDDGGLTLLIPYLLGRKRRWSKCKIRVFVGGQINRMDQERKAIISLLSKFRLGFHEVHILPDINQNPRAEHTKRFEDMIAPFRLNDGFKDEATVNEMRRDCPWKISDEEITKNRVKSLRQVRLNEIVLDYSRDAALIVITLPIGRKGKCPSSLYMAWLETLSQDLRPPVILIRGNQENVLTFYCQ
In words: 125I- uptake assay, hNCC(G230A) variant. Conditions: for fold less sensitive than hNCC(WT) / IC50: G230A substitution; for IC50: iodide uptake. The class given is cell-based. As for the experimental part: (§1) HEK293S cell lines, cultured in 293 Freestyle medium (Life Technologies; plus 10% fetal bovine serum), stably expressing hNCC and its variants were generated following published protocols. Cells were transfected using Lipofectamine 3000 (Invitrogen) with a pSBbi-RP-based plasmid containing hNCC or its variants and the SB100X vector. Puromycin (2 μg/mL; Gemini Bio-Products) was used for selection of stable cell lines.
(§2) To prepare for the uptake experiment, cells were plated at 0.5 × 10^6 cells/well in 24-well plates one day in advance. To activate NCC, cells were treated with a chloride-free hypotonic solution composed of 67.5 mM sodium-, 2.5 mM potassium-, 0.25 mM magnesium-, and 0.25 mM calcium-gluconate, as well as 7.5 mM HEPES pH 7.4 (buffered using Tris) at 37 °C for 10 min[72]. After the activation step, the experiments were carried out at room temperature. Ten minutes before the start of ^125I^− uptake, 70 μM Bumetanide (Thermo Scientific Chemicals) and 100 μM 4,4′-diisothiocyanatostilbene-2,2′-disulfonic acid (DIDS; Sigma) were added to suppress background iodide uptake activity. Indicated thiazide diuretics were also added to the indicated concentrations 10 min before the start of ^125I^− uptake. The original buffer was switched to an uptake buffer composed of 135 mM Na-gluconate, 5 mM K-gluconate, 1 mM Mg-gluconate, 1 mM Ca-gluconate, 70 μM bumetanide, 100 μM DIDS, 1 mM NaI, 0.25 μCi/ml Na^125I (American Radiolabeled Chemicals, Inc.), and 15 mM HEPES pH 7.4 (buffered using Tris), in the presence or absence of thiazide diuretics to initiate ^125I^− uptake. The ^125I^− uptake process lasted 1 h and was stopped by two rapid washes using ice-cold 110 mM MgCl2. Cells lysed using 1% sodium dodecyl sulfate (SDS) were analyzed by scintillation counting.
(§3) To calculate the fold change of the half-maximal inhibitory concentration (IC50) between hNCC(WT) and different hNCC variants, individual dose-response curves were normalized first using the smallest mean and the value of the lowest concentration as 0% and 100%, respectively. The normalized data were then fitted using the “EC50 shift” nonlinear regression in GraphPad Prism 10 with the shared EC50Control assigned to be the IC50 of hNCC(WT). The following constraints were used in the EC50 shift analysis. The EC50Control was set to be shared across all curves under analysis and constrained to be greater than 0. The EC50Ratio was constrained to be greater than 0. The bottom, top, and HillSlope were constrained to be 0, 100, and −1, respectively. For Fig. 1f, g and Supplementary Fig. 2d, GraphPad Prism 10 was used to perform curve fitting and IC50 calculation for normalized data using y = 100/(1 + (x/IC50)).

In the next assay the test system is hNCC(V231M). As to the kind of experiment: 125I- uptake assay, hNCC(V231M) variant. Format: cell-based, human. Conditions: V231M polymorphism. The method, then:
as §1, §2, §3

For the molecule `NS(=O)(=O)c1cc(C2(O)NC(=O)c3ccccc32)ccc1Cl` (stereo not shown) [chlorthalidone], at hNCC(G230A), the “fold less sensitive than hNCC(WT)” value is “approximately 40 fold” and the half-maximal inhibitory concentration (IC50) is 0.93 µM. Moreover, in the assay with hNCC(V231M), the “sensitivity relative to hNCC(WT) (fold lower)” value is 3 fold.

For the molecule `CC1Cc2ccccc2N1NC(=O)c1ccc(Cl)c(S(N)(=O)=O)c1` (stereo not shown) [indapamide], at hNCC(G230A), the “fold less sensitive than hNCC(WT)” value was ~ 2 fold and the midpoint of inhibition, the IC50, lay at 0.029 µM. In the assay on hNCC(V231M), the “sensitivity relative to hNCC(WT) (fold lower)” value came to 2 fold.

For the molecule `CN1C(CSCC(F)(F)F)Nc2cc(Cl)c(S(N)(=O)=O)cc2S1(=O)=O` (stereo not shown) [polythiazide], the “inhibition of transport activity” value against hNCC(G230A) (100 μM polythiazide, G230A) is “fully inhibited”. Besides, at hNCC(G230A), the “fold less sensitive than hNCC(WT)” value is ~ 2 fold and half-maximal inhibition (IC50) was put at 0.0014 µM. Further, in the assay with hNCC(V231M), the “sensitivity relative to hNCC(WT) (fold lower)” value was “nearly as sensitive as the wild-type”.
